Laboratory results from publication PMC9019904, “AD Informer Set: Chemical tools to facilitate Alzheimer's disease drug discovery” (Alzheimer's & Dementia : Translational Research & Clinical …, 2022).

Experiments:
[1] = test system: BV2 (mouse microglia) cell line; assay: pHrodo-myelin phagocytosis/cell viability high content imaging assay: viability (cell count, nuclear area, nuclear intensity); details: 48 hours treatment
In short: (§1)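 Viability was read by high-content imaging as cell count per well and nuclear intensity per cell, in murine BV2 and human HMC3 microglial lines. Cells received a single 10 μM compound dose for 48 h, including 20 h with pHrodo-myelin. Duplicate means are expressed as % of untreated control.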

[2] = test system: HMC3 (human microglia) cell line; assay: as above; details: 48 hours treatment
In short: as §1

[3] = test system: BV2 (mouse microglia) cell line; assay: pHrodo-myelin phagocytosis/cell viability high content imaging assay: phagocytosis signal; assay type: cell-based
In short: (§2)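 Cells receive pHrodo-myelin, then are imaged at high content approximately 22 hours later. Phagocytosis signal and viability are captured in the same run. Three measurements are extracted per well.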

[4] = test system: HMC3 (human microglia) cell line; assay: as above; assay type: cell-based
In short: as §2

[5] = BV2 cells, 10 uM compound, 48 hours treatment, pHrodo-myelin final 20 hours
[6] = HMC3 cells, 10 uM compound, 48 hours treatment, pHrodo-myelin final 20 hours
[7] = BV2, compound 10 uM, pHrodo-myelin
[8] = HMC3, compound 10 uM, pHrodo-myelin

| Structure (SMILES) | 1. Cell count (% control) ([1]; BV2 cells, 10 uM compound) | 2. Nuclear Area (% Control) ([1]; BV2 cells, 10 uM compound) | 3. Nuclear DNA Intensity (% control) ([1]; BV2 cells, 10 uM compound) | 1. Cell count (% control) ([2]; HMC3 cells, 10 uM compound) | 2. Nuclear Area (% Control) ([2]; HMC3 cells, 10 uM compound) | 3. Nuclear DNA Intensity (% control) ([2]; HMC3 cells, 10 uM compound) | 4. Phagocytosis (% control) [3, 5] [% control] | 4. Phagocytosis (% control) [4, 6] [% control] | 1. Cell count (% control) ([1]; BV2, compound 10 uM) | 2. Nuclear Area (% Control) ([1]; BV2, compound 10 uM) | 3. Nuclear DNA Intensity (% control) ([1]; BV2, compound 10 uM) | 1. Cell count (% control) ([2]; HMC3, compound 10 uM) | 2. Nuclear Area (% Control) ([2]; HMC3, compound 10 uM) | 3. Nuclear DNA Intensity (% control) ([2]; HMC3, compound 10 uM) | 4. Phagocytosis (% control) [3, 7] [% control] | 4. Phagocytosis (% control) [4, 8] [% control] |
| --- | --- | --- | --- | --- | --- | --- | --- | --- | --- | --- | --- | --- | --- | --- | --- | --- |
| O=C(Nc1ccc([N+](=O)[O-])cc1Cl)c1cc(Cl)ccc1O [UNC10302856A] | 132.8 | 104.4 | 103.0 | 150.0 | 101.6 | 94.0 | 133.2 | 50.1 |  |  |  |  |  |  |  |  |
| CN(C)CC[C@H](CSc1ccccc1)Nc1ccc(S(=O)(=O)NC(=O)c2ccc(N3CCN(Cc4ccccc4-c4ccc(Cl)cc4)CC3)cc2)cc1[N+](=O)[O-] [UNC10302898A] | 128.7 | 97.8 | 106.0 | 148.0 | 98.3 | 97.1 | 104.5 | 82.2 |  |  |  |  |  |  |  |  |
| O=C(O)CCCc1nc(-c2ccc(Cl)c(Cl)c2)c(-c2ccccc2)o1 [UNC8366A] |  |  |  |  |  |  |  |  | 118.0 | 106.9 | 102.3 | 151.8 | 102.0 | 90.3 | 161.9 | 67.3 |
| Oc1c(F)cc(-c2cnccc2-c2ccc(N3CCOCC3)cc2)cc1F [UNC10302871A] |  |  |  |  |  |  |  |  | 98.2 | 107.6 | 98.3 | 123.1 | 101.3 | 92.9 | 174.2 | 84.7 |
| O=C1C=C(NCCc2cc(Br)c(O)c(Br)c2)C(=O)c2ncccc21 [UNC10303225A] |  |  |  |  |  |  |  |  | 8.3 | 122.7 | 97.1 | 62.3 | 83.0 | 132.4 | 163.7 | 54.3 |
| Oc1cc(CNC(=S)/C=C/c2cc(O)c(O)c(Br)c2)cc(O)c1O [UNC10302699A] |  |  |  |  |  |  |  |  | 17.7 | 116.2 | 76.1 | 53.7 | 113.5 | 119.4 | 235.2 | 92.5 |
| CCC(=O)O[C@]1(C(=O)SCF)[C@H](C)C[C@H]2[C@@H]3C[C@H](F)C4=CC(=O)C=C[C@]4(C)[C@@]3(F)[C@@H](O)C[C@@]21C [UNC10121416A] | 84.8 | 98.6 | 113.9 | 136.9 | 109.9 | 86.5 | 95.5 | 94.0 |  |  |  |  |  |  |  |  |
| O=c1ccc2c(OCCCCc3ccccc3)c3ccoc3cc2o1 [UNC10100197A] |  |  |  |  |  |  |  |  | 106.2 | 106.9 | 106.7 | 124.6 | 99.9 | 93.8 | 195.3 | 60.7 |
| C=Cc1c(C)c2cc3nc(cc4[nH]c(cc5nc(cc1[nH]2)C(C)=C5CCC(=O)O)c(CCC(=O)OC)c4C)[C@@]1(C)C3=CC=C(C(=O)OC)[C@H]1C(=O)OC [UNC10303159A] |  |  |  |  |  |  |  |  | 114.7 | 121.1 | 113.2 | 113.8 | 131.2 | 126.0 | 174.1 | 5.8 |
| COc1cc(/C=C/c2ccc(NC(=O)/C=C/c3cc(OC)c(OC)c(OC)c3)cc2)cc(OC)c1 [UNC10302905A] | 33.3 | 95.8 | 130.4 | 87.3 | 107.2 | 109.8 | 64.0 | 65.4 |  |  |  |  |  |  |  |  |
| O=C(N/N=C/c1ccc(Cl)cc1)c1ccccc1 [UNC10302877A] | 100.1 | 103.0 | 107.1 | 103.0 | 94.5 | 106.0 | 104.1 | 87.3 |  |  |  |  |  |  |  |  |
| Cc1cc(NC(=O)Nc2ccccc2)n(-c2ccccc2)n1 [UNC10302880A] | 120.0 | 104.5 | 102.6 | 145.4 | 97.9 | 96.8 | 135.3 | 71.0 |  |  |  |  |  |  |  |  |
| Cc1cc(O)cc2c1[C@]1(C)CCC3C(C)(C)CCC[C@]3(C)[C@H]1C2 (stereo partly drawn) [UNC10302703A] |  |  |  |  |  |  |  |  | 88.9 | 108.7 | 100.3 | 107.3 | 104.4 | 94.7 | 179.0 | 74.6 |
| CN1C[C@H](Nc2cnn(C)c(=O)c2Br)C[C@H](c2ccccc2)C1 [UNC10303157A] |  |  |  |  |  |  |  |  | 85.0 | 105.0 | 100.7 | 86.8 | 97.5 | 100.9 | 145.8 | 103.4 |
| Cc1ccc(-n2nc(C(C)(C)C)cc2NC(=O)Nc2ccc(OCCN3CCOCC3)c3ccccc23)cc1 [UNC10225354A] | 127.7 | 105.8 | 105.3 | 144.2 | 99.1 | 93.2 | 236.7 | 109.7 |  |  |  |  |  |  |  |  |
